Measured values reported in PMC12735872, “Development of ^18F/^11C-Labeled Pyrrolo-Pyridine/Pyrimidine LRRK2 Selective PET Radioligands” (Pharmaceuticals, 2025).
Read-outs that look alike come from different tables or passages of the source.

Experiments:
MDR1 (P-gp) = assay: MDR1-MDCK permeability and efflux ratio; assay type: in vitro ADME; conditions: dog, assay described in ref. 17
Description: Table 1 LRRK2 wild-type (WT) and G2019S Lanthascreen, MDR1-MDCK permeability (Papp A:B), and efflux ratio (B:A/A:B), free fractions in plasma (fp) and brain homogenate (fb) and PET Multi-Parameter Optimization (MPO) score of Compounds 1, 2, and 3. | column: Papp A:B ^2 (MDR1-MDCK) (cm/s × 10^−6); B:A/A:B ^2

[1] = Free fraction in plasma (fp); assay type: in vitro ADME; conditions: method ref. 18
Description: Table 1 LRRK2 wild-type (WT) and G2019S Lanthascreen, MDR1-MDCK permeability (Papp A:B), and efflux ratio (B:A/A:B), free fractions in plasma (fp) and brain homogenate (fb) and PET Multi-Parameter Optimization (MPO) score of Compounds 1, 2, and 3. | column: fp ^3 (%)

[2] = Free fraction in brain homogenate (fb); assay type: in vitro ADME; conditions: method ref. 18
Description: Table 1 LRRK2 wild-type (WT) and G2019S Lanthascreen, MDR1-MDCK permeability (Papp A:B), and efflux ratio (B:A/A:B), free fractions in plasma (fp) and brain homogenate (fb) and PET Multi-Parameter Optimization (MPO) score of Compounds 1, 2, and 3. | column: fb ^3 (%)

LRRK2 G2019S = LRRK2 G2019S (Homo sapiens, UniProt Q5S007, G2019S); assay: LRRK2 G2019S Lanthascreen; assay type: biochemical; conditions: assay described in ref. 16; read-out: LRRK2 Lanthascreen G2019S cKi
LRRK2 wild-type (WT) = LRRK2 wild-type (WT) (Homo sapiens, UniProt Q5S007); assay: LRRK2 wild-type Lanthascreen; assay type: biochemical; conditions: assay described in ref. 16; read-out: LRRK2 Lanthascreen WT cKi
cynomolgus monkey brain = assay: In vivo PET imaging in cynomolgus monkeys; conditions: for Blocking effect on [^18F]1 brain binding in vivo: pretreatment 30 min before [^18F]1, GNE-7915 40 mg/kg, PFE-360 0.5 mg/kg iv
Description: PET measurements were led using a high-resolution research tomograph (HRRT) from Siemens Molecular Imaging (Knoxville, TN, USA). List mode data were reconstructed using the ordinary Poisson-3D-ordered subset expectation maximization (OP-3D-OSEM) algorithm, with 10 repetitions and 16 subsets while modeling the point spread function (PSF). The in-plane resolution accomplished with OP-3D-OSEM and PSF was 1.5 mm full width at half maximum (FWHM) at the center of the field of view (FOV) and 2.4 mm at 10 cm off-center.
The study was approved by the Animal Ethics Committee of the Swedish Animal Welfare Agency and was performed according to “Guidelines for planning, conducting and documenting experimental research” (Dnr 5.2.18-4170/14 issued on 11 April 2014) of the KI as well as the “Guide for the Care and Use of Laboratory Animals” [26]. NHPs were supplied by the Astrid Fagraeus Laboratory (AFL) of the Swedish Institute for Infectious Disease Control (SMI), Solna, Sweden. Anesthesia was brought by intramuscular injection of ketamine hydrochloride (approximately 10 mg/kg) at AFL and continued with a mixture of sevoflurane (0–8.0%), oxygen, and medical air through endotracheal intubation at the KI PET center. The NHP head was immobilized using a homemade fixation device. Body temperature was maintained with a Bair Hugger model 505 (Arizant Healthcare, Eden Prairie, MN, USA) and monitored via an esophageal thermometer. ECG, heart rate, respiratory rate, blood pressure, and oxygen saturation were continuously examined throughout the experiments. The fluid balance was retained with continuous infusion of saline.
A 6 min transmission scan was performed before the injection of the radioligand using a single Cs-137 source. List mode data was acquired continuously for 93 min following intravenous administration of the radioligand. Images were reconstructed into 38 frames with varying intervals: […].
For all PET measurements, radioligands were administered via intravenous injection. Regions of interest (ROIs) were manually delineated on MRI images for each NHP, for the whole brain, cerebellum, caudate, putamen, thalamus, frontal cortex, temporal cortex, amygdala, posterior cingulate cortex, anterior cingulate cortex, hippocampus, occipital cortex, parietal cortex, ventral striatum, and insula. The summed PET images over the entire duration were co-registered with the individual NHP’s MRI image. After applying the co-registration parameters to the dynamic PET data, time–activity curves were generated for each brain region for every PET measurement. The standardized uptake value (SUV) was calculated for each brain region. The total distribution volume (VT) for all three radioligands were derived using one-tissue compartment (1-TC) and two-tissue compartment (2-TC) models.
On two separate occasions, PET measurements were performed after intravenous administration of GEN-7915 or PFE-360 with a slow infusion in one NHP (NHP2). The infusion lasted for 2 min, starting 30 min before PET scanning. The pretreatment formulations were prepared by dissolving it in DMSO (5%), Kolliphor EL (15%), and PBS (80%), and the pH of the final formulation was approximately 4.5–5.0. An automated blood sampling system (ABSS) measured continuous radioactivity for the first 3 min following the radioligand injection, while manual blood samples were taken at 4, 15, 30, 60, and 90 min post-injection to measure the radioactivity and metabolism.

LRRK2 = molecular target: T1, LRRK2 (Homo sapiens, UniProt Q5S007); assay: In vitro autoradiography, human whole-hemisphere brain slices; assay type: binding
T1 construct: Human brains without pathological findings were acquired from the National Institute of Forensic Medicine; from tissue; host or cells: human post-mortem control brain, whole-hemisphere sections (100 µm)
Experimental: Human brains without pathological findings were acquired from the National Institute of Forensic Medicine at Karolinska Institutet in Stockholm, Sweden. These brains were obtained during forensic autopsies (designated as control brain) and were processed in a manner like previously described methods. […] The brain was removed, and its tissues were kept in −85 °C until the sectioning process. The whole brain hemispheric slices were subsequently maintained at −25 °C until the commencement of autoradiography procedures. […] The sectioning of the brain and the autoradiography experiments were performed at the Psychiatry section, Department of Neuroscience, Karolinska Institutet, Sweden.
Whole brain hemispheres were sectioned into horizontal slices with a thickness of 100 µm using a Leica cryomacrocut system. The autoradiographic procedures followed the same protocols established in previous studies conducted in our laboratory. The whole-hemisphere sections of 100 micron thickness were incubated for 90 min at room temperature with their corresponding radiotracer (4 MBq/200 mL) in TRIS buffer (pH 7.4) containing sodium chloride (120 mM), potassium chloride (5 mM), calcium chloride (2 mM), and albumin (0.1% w/v). After incubation, sections were washed three times in the same buffer at room temperature for five minutes each, briefly dipped in ice-cold distilled water, dried, and then placed in the phosphor imaging plates. Binding density standards were prepared by serial dilution of the radioligand stock solution in the assay buffer. Readings were taken with the Fujifilm BAS-5000 (Fujifilm, Tokyo, Japan), while quantitative analysis was conducted with the Multi Gauge 3.2 image analysis software (Fujifilm, Tokyo, Japan). For blocking experiments, adjacent brain sections were co-incubated with LuAF66583 (0.1 µM or 10 µM).

[3] = Plasma protein binding by ultrafiltration; assay type: in vitro ADME, non-human primate (NHP); conditions: cynomolgus monkey, pH 7.4, NHP plasma, baseline
Experimental: The plasma protein binding of all three radioligands was determined in duplicate at the baseline condition according to a previously published method. For each blood plasma sample, 500 μL of non-human primate (NHP) blood plasma was used with 50 μL PBS (pH 7.4 containing KCl 0.2 mg, KH2PO4 0.2 mg, Na2HPO4 1.42 mg, and NaCl 8 mg per mL). The mixture included around 20 MBq of the corresponding radioligand in PBS. Samples underwent incubation at room temperature for 10 min. A small aliquot (20 µL) was taken from each mixture, and radioactivity measurements were performed using a well counter. From each mixture, 200 µL was placed into ultrafiltration tubes (Millipore Centrifree YM-30) and centrifuged at 3000 rpm for 15 minutes. The remaining filtrates were analyzed and aliquots (20 µL) were counted in the well counter described earlier. Protein-bound fractions were calculated as follows:(1) C⥂pla (filtrate) /Cpla (total) ÷CPBS (filtrate) /CPBS (total) ×100(%)
Cpla (total) represents the radioactivity concentration of incubation mixture in plasma and CPBS (total) represents the radioactivity concentration of incubation mixture in PBS. Cpla (filtrate) and CPBS (filtrate) are the radioactivity concentrations from filtrate samples.

[4] = Radiometabolite analysis in monkey plasma (gradient HPLC); assay type: in vivo, cynomolgus monkey; conditions: baseline PET
Experimental: The technique published earlier was utilized for the analysis of radiometabolites in NHP blood plasma. During the entire PET measurement, the percentage of the injected radioligand and its corresponding radioactive metabolites and radioactivity was measured with a reverse-phase HPLC system with UV absorbance detector (λ = 254 nm) and a radioactive detector. […] The blood samples were centrifuged at 4000 rpm for 2 min to separate plasma. From the centrifuged plasma, the resulting plasma was withdrawn and spiked with 1.4 times its volume of acetonitrile before being spun at 6000 rpm for 4 min. The supernatant, collected after the spun at 6000 rpm, was diluted with 3 mL of water, which was then injected into the HPLC system. The HPLC system was constructed with an Agilent 1200 series binary pump (Agilent, Santa Clara, CA, USA), a Rheodyne 7725i (Thermo Scientific, Waltham, MA, USA) manual injection valve, a 5.0 mL loop, and an Oyokoken S-2493Z radiation detector (Oyokoken, Tokyo, Japan) fitted with 50 mm lead shielding, which houses the detector. Chromatographic separation of the radiometabolites from the unchanged radioligand was performed via gradient elution on a semi-preparative reverse-phase ACE 5 µm C18 HL column (250 × 10 mm) using a mobile phase of acetonitrile (A) and ammonium formate 0.1 M (B). A flow rate of 5.0 mL/min was utilized according to the program 0–6.0 min: (A/B) 40:60 → 90:10 v/v; 6.0–10.0 min: (A/B) 90:10 (v/v). The radioactive peak corresponding to the parent radioligand was then integrated from the data output of the HPLC column. The area of this peak was calculated relative to the total area detected for all radioactive compounds. To evaluate the radioactivity recovery from the system, the measurement was taken from a 2 mL aliquot of the eluate taken from the HPLC column and measured against the total injected radioactivity.

[5] = Stability of formulated radioligand in PBS (analytical HPLC); assay type: physicochemical; conditions: sterile PBS, for 60 min
Experimental: The radiochemical purity and stability of all three radioligands ([^11C]3, [^18F]1 and [^18F]2) were determined using analytical HPLC coupled with an XBridge analytical column (C18 5 µm, 4.6 × 150 mm particle size), a Merck-Hitachi L-7100 pump, an L-7400 UV detector, and a GM tube for radioactivity detection (VWR International). A mixture of acetonitrile (25%) and HCO2NH4 (0.1 M aq. solution) (75%) with a flow rate of 2 mL/min was used as HPLC isocratic mobile phase. The HPLC liquid flow was monitored using a UV absorbance detector (λ = 254 nm) in conjunction with a radioactive detector (BETA-flow, Beckman, Fullerton, CA, USA). All three radioligands were eluted with a retention time (tR) of 4.0–4.5 min, and the total run time of the HPLC program was 9 min. The identity of the radiolabeled compound was confirmed by co-injecting the corresponding authentic reference standard.

T1 sequence (Q5S007 whole entry): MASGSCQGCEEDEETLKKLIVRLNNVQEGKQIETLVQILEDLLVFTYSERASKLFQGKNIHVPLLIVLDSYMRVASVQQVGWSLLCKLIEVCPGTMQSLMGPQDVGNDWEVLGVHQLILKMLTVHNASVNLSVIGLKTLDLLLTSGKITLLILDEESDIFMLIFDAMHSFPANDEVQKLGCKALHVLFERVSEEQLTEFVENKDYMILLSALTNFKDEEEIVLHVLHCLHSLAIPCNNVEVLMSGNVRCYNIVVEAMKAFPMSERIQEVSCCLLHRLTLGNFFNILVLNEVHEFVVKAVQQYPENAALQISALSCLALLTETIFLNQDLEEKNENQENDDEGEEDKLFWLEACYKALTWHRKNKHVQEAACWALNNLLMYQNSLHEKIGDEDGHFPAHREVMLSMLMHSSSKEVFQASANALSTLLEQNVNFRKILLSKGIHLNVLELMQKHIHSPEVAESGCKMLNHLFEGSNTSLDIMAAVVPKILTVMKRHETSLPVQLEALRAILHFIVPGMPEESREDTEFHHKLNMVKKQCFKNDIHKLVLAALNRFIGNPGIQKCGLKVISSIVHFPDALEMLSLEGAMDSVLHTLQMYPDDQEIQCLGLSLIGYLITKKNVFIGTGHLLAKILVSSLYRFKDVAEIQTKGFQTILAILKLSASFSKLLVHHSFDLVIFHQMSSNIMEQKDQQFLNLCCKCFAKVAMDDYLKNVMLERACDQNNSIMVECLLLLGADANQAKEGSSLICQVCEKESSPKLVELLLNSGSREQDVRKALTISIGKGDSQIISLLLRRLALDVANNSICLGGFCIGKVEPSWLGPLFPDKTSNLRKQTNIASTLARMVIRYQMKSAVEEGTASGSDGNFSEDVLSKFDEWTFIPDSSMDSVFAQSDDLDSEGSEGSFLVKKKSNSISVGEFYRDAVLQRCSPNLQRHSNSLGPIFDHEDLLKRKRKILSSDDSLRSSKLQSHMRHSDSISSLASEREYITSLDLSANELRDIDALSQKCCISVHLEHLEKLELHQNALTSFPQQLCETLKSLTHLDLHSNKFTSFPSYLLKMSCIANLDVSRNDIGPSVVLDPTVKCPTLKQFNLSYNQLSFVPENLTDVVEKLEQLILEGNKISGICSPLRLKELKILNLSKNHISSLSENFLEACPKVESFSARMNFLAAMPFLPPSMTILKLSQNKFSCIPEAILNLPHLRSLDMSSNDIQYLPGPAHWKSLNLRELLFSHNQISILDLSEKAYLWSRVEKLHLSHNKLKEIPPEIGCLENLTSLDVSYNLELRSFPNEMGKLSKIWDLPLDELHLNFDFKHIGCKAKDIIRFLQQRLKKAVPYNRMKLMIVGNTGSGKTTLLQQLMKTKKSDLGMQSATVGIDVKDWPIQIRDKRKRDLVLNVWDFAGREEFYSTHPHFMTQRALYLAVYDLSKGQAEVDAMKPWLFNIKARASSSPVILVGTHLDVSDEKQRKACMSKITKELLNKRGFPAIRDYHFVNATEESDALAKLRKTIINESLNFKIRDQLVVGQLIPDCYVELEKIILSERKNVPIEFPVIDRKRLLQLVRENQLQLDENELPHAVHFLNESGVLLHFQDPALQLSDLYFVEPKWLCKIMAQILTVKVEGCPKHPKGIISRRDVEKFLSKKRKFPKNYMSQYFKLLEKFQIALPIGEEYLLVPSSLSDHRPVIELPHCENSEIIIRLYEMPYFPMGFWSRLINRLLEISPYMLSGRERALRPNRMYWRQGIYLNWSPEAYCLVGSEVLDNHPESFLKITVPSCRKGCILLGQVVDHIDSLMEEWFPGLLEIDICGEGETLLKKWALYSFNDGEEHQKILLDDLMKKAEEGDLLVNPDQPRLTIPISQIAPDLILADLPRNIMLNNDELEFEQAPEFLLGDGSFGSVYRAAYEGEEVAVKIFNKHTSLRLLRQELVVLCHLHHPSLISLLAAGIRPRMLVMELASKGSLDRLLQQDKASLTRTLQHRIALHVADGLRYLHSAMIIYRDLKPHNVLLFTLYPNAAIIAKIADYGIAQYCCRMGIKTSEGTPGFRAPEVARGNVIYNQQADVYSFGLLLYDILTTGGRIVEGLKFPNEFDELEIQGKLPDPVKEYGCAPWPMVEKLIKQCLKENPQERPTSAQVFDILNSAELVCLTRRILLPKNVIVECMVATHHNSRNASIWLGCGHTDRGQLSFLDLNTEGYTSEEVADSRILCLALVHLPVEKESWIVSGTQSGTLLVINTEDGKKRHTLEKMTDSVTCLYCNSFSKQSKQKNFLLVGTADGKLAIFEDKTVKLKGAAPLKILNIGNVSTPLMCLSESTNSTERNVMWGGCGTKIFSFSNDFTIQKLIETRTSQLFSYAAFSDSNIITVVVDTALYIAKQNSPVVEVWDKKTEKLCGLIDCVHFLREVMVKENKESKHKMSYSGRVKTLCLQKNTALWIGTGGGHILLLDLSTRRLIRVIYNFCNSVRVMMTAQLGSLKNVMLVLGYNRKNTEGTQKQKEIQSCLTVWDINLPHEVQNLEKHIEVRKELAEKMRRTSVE
LRRK2 G2019S, sequence (Q5S007 whole entry G2019S): as the sequence (Q5S007 whole entry) above, with G2019S counted along it
LRRK2 wild-type (WT), sequence (Q5S007 whole entry): as the sequence (Q5S007 whole entry) above

For C[C@@H]1C[C@@H](F)CN1c1c(C#N)c2c(N)ncnc2n1C [Compound 2, 4-Amino-6-((2R,4R)-4-fluoro-2-methylpyrrolidin-1-yl)-7-methyl-7H-pyrrolo[2,3-d]pyrimidine-5-carbo nitrile], the Papp A→B (MDR1 (P-gp); MDCK-MDR1) was 44 ×10⁻⁶ cm/s, the efflux ratio (MDR1 (P-gp); MDR1-MDCK, read-out: B:A/A:B (efflux ratio)) was 0.66 and the fraction unbound [1] was 0.47. It also gave a fraction unbound [2] of 0.23, a Ki (LRRK2 G2019S) of 0.37 nM and a Ki (LRRK2 wild-type (WT)) of 0.32 nM.
For CCNc1nc(Nc2cc(F)c(C(=O)N3CCOCC3)cc2OC)ncc1C(F)(F)F [GEN-7915, reference compound], the “Blocking effect on [^18F]1 brain binding in vivo” value (cynomolgus monkey brain) was “no clear blocking effects”.
With Cn1cc(-c2c[nH]c3ncnc(N4CCOCC4)c23)cc1C#N [PFE-360, reference compound] the “Blocking effect on [^18F]1 brain binding in vivo” value (cynomolgus monkey brain) was “no clear blocking effects”, the “Effect on [^18F]1 binding (ARG)” value (LRRK2; human brain slice, pre-incubation with 0.1 µM) was “did not significantly reduce” and the “Effect on [^18F]2 binding (ARG)” value (LRRK2; human striatum, hippocampus, cerebellum, pretreated with 10 µM) was “significantly reduced”.
With C[C@@H]1CCCN1c1c(C#N)c2c(N)nc(Nc3cnn([11CH3])c3)nc2n1C [[^11C]3, (R)-4-Amino-7-methyl-2-((1-[^11C]methyl-1H-pyrazol-4-yl)amino)-6-(2-methylpyrrolidin-1-yl)-7H-pyrrolo[2,3-d]pyrimidine-5-carbonitrile] the Brain uptake (cynomolgus monkey brain; PET, iv, baseline) was > 1 %ID, the Brain washout (cynomolgus monkey brain; PET, iv, baseline) was “rapid washout” and the “Regional distribution of brain uptake” value (cynomolgus monkey brain; PET, iv, baseline) was “no significant regional differences”. For the same compound, the fraction unbound at 10 min ([3]; read-out: Free fraction in plasma (fP)) was ~0.15, the fraction unbound at 10 min ([3]; read-out: Plasma protein binding (converted)) was < 0.15 and the “Parent compound, share of eluted plasma radioactivity” value ([4]; at 5 min) was “over 90%”. For the same compound, the “Parent compound, share of eluted plasma radioactivity” value ([4]; at 90 min) was “around 10%” and the “Radiochemical purity maintained in formulation” value [5] was “exceeding 99%”.
